Source: PubChem BioAssay AID1963847 (Molecular Pharmacology Branch, DTP, NCI, 2024)

Test system: 415267-285-R-J2-PDC complex spheroid viability
Assay: Anticancer human tumor 415267-285-R-J2-PDC patient-derived breast carcinoma cell line growth inhibition [POLQ]
Conditions: for IC50: curve of first compound; for viability, T/C: stronger effect = lower value
Method in brief: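 Patient-derived tumour cells were co-cultured with HUVEC and mesenchymal stem cells as multicellular spheroids at 37 °C. They were treated with POLQ inhibitors (novobiocin, ART-558, RP6685) alone or combined with other agents. Top concentrations were at or near clinical Cmax (otherwise 10 microM; SN-38 at 1 microM), decreasing in half-log steps.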

[1] = second compound 0.0316 µM, first compound 0.0316 µM
[2] = second compound 0.0316 µM, first compound 0.1 µM
[3] = second compound 0.1 µM, first compound 0.0316 µM
[4] = second compound 0.1 µM, first compound 0.1 µM
[5] = second compound 0.316 µM, first compound 0.0316 µM
[6] = second compound 0.316 µM, first compound 0.1 µM
[7] = second compound 1 µM, first compound 0.0316 µM
[8] = second compound 1 µM, first compound 0.1 µM
[9] = second compound 3.16 µM, first compound 0.0316 µM
[10] = second compound 3.16 µM, first compound 0.1 µM
[11] = second compound 10 µM, first compound 0.0316 µM
[12] = second compound 10 µM, first compound 0.1 µM
[13] = second compound 0.0316 µM, first compound 0.000316 µM
[14] = second compound 0.0316 µM, first compound 0.001 µM
[15] = second compound 0.0316 µM, first compound 0.00316 µM
[16] = second compound 0.0316 µM, first compound 0.01 µM
[17] = second compound 0.1 µM, first compound 0.000316 µM
[18] = second compound 0.1 µM, first compound 0.001 µM
[19] = second compound 0.1 µM, first compound 0.00316 µM
[20] = second compound 0.1 µM, first compound 0.01 µM
[21] = second compound 0.316 µM, first compound 0.000316 µM
[22] = second compound 0.316 µM, first compound 0.001 µM
[23] = second compound 0.316 µM, first compound 0.00316 µM
[24] = second compound 0.316 µM, first compound 0.01 µM
[25] = second compound 1 µM, first compound 0.000316 µM
[26] = second compound 1 µM, first compound 0.001 µM
[27] = second compound 1 µM, first compound 0.00316 µM
[28] = second compound 1 µM, first compound 0.01 µM
[29] = second compound 3.16 µM, first compound 0.000316 µM
[30] = second compound 3.16 µM, first compound 0.001 µM
[31] = second compound 3.16 µM, first compound 0.00316 µM
[32] = second compound 3.16 µM, first compound 0.01 µM
[33] = second compound 10 µM, first compound 0.000316 µM
[34] = second compound 10 µM, first compound 0.001 µM
[35] = second compound 10 µM, first compound 0.00316 µM
[36] = second compound 10 µM, first compound 0.01 µM
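Also: spheroids exposed to compounds for one week before readout.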
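For viability, T/C in this document: luminescence used as stand-in measure of viable cells; 100% = DMSO vehicle control viability.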

Q: Which results are given for C#Cc1c(F)ccc2cc(O)cc(-c3ncc4c(N5CC6CCC(C5)N6)nc(OCC56CCCN5CC(F)C6)nc4c3F)c12 (stereo unspecified) + Nc1ccc(C#CCN(C(=O)Cc2ncc(C(F)(F)F)cc2C(F)(F)F)c2ccc(F)cc2)nn1?
A: IC50 (second compound 0.0316 µM): > 10000 nM; IC50 (second compound 0.1 µM): > 10000 nM; IC50 (second compound 0.316 µM): > 10000 nM; IC50 (second compound 1 µM): > 10000 nM; IC50 (second compound 3.16 µM): > 10000 nM; IC50 (second compound 10 µM): > 10000 nM; viability, T/C [1]: 105%; viability, T/C [2]: 110%; viability, T/C (second compound 0.0316 µM, first compound 0.316 µM): 84%; viability, T/C (second compound 0.0316 µM, first compound 1 µM): 101%; viability, T/C (second compound 0.0316 µM, first compound 3.16 µM): 97%; viability, T/C (second compound 0.0316 µM, first compound 10 µM): 99.5%; viability, T/C [3]: 100%; viability, T/C [4]: 96%; viability, T/C (second compound 0.1 µM, first compound 0.316 µM): 94.4%; viability, T/C (second compound 0.1 µM, first compound 1 µM): 98.6%; viability, T/C (second compound 0.1 µM, first compound 3.16 µM): 97.3%; viability, T/C (second compound 0.1 µM, first compound 10 µM): 92.3%; viability, T/C [5]: 114%; viability, T/C [6]: 110%; viability, T/C (second compound 0.316 µM, first compound 0.316 µM): 113%; viability, T/C (second compound 0.316 µM, first compound 1 µM): 111%; viability, T/C (second compound 0.316 µM, first compound 3.16 µM): 98.5%; viability, T/C (second compound 0.316 µM, first compound 10 µM): 102%; viability, T/C [7]: 105%; viability, T/C [8]: 102%; viability, T/C (second compound 1 µM, first compound 0.316 µM): 95%; viability, T/C (second compound 1 µM, first compound 1 µM): 112%; viability, T/C (second compound 1 µM, first compound 3.16 µM): 96.1%; viability, T/C (second compound 1 µM, first compound 10 µM): 105%; viability, T/C [9]: 113%; viability, T/C [10]: 106%; viability, T/C (second compound 3.16 µM, first compound 0.316 µM): 105%; viability, T/C (second compound 3.16 µM, first compound 1 µM): 106%; viability, T/C (second compound 3.16 µM, first compound 3.16 µM): 115%; viability, T/C (second compound 3.16 µM, first compound 10 µM): 111%; viability, T/C [11]: 97.7%; viability, T/C [12]: 103%; viability, T/C (second compound 10 µM, first compound 0.316 µM): 102%; viability, T/C (second compound 10 µM, first compound 1 µM): 96.4%; viability, T/C (second compound 10 µM, first compound 3.16 µM): 102%; viability, T/C (second compound 10 µM, first compound 10 µM): 116%

Q: Which results are given for Cn1ncnc1[C@H]1c2n[nH]c(=O)c3cc(F)cc(c23)N[C@@H]1c1ccc(F)cc1 + Nc1ccc(C#CCN(C(=O)Cc2ncc(C(F)(F)F)cc2C(F)(F)F)c2ccc(F)cc2)nn1?
A: IC50 (second compound 0.0316 µM): > 100 nM; IC50 (second compound 0.1 µM): > 100 nM; IC50 (second compound 0.316 µM): > 100 nM; IC50 (second compound 1 µM): > 100 nM; IC50 (second compound 3.16 µM): > 100 nM; IC50 (second compound 10 µM): > 100 nM; viability, T/C [13]: 101%; viability, T/C [14]: 97.2%; viability, T/C [15]: 101%; viability, T/C [16]: 93.7%; viability, T/C [1]: 95.8%; viability, T/C [2]: 97.8%; viability, T/C [17]: 96.7%; viability, T/C [18]: 109%; viability, T/C [19]: 86.9%; viability, T/C [20]: 92.6%; viability, T/C [3]: 99.8%; viability, T/C [4]: 94.8%; viability, T/C [21]: 88.7%; viability, T/C [22]: 102%; viability, T/C [23]: 88.2%; viability, T/C [24]: 99.6%; viability, T/C [5]: 95.5%; viability, T/C [6]: 110%; viability, T/C [25]: 98.9%; viability, T/C [26]: 101%; viability, T/C [27]: 109%; viability, T/C [28]: 99.5%; viability, T/C [7]: 105%; viability, T/C [8]: 120%; viability, T/C [29]: 97.8%; viability, T/C [30]: 113%; viability, T/C [31]: 114%; viability, T/C [32]: 91.6%; viability, T/C [9]: 101%; viability, T/C [10]: 108%; viability, T/C [33]: 89.8%; viability, T/C [34]: 105%; viability, T/C [35]: 108%; viability, T/C [36]: 94.2%; viability, T/C [11]: 101%; viability, T/C [12]: 105%

Q: For CC[C@@]1(O)C(=O)OCc2c1cc1n(c2=O)Cc2cc3c(CN(C)C)c(O)ccc3nc2-1 + Nc1ccc(C#CCN(C(=O)Cc2ncc(C(F)(F)F)cc2C(F)(F)F)c2ccc(F)cc2)nn1, which IC50 (second compound 0.0316 µM) is on record?
A: 24.2 nM

Q: And the IC50 (second compound 0.1 µM)?
A: 23.2 nM

Q: And the IC50 (second compound 0.316 µM)?
A: 25.8 nM

Q: What about the IC50 (second compound 1 µM) of the same molecule?
A: 24.3 nM

Q: And the IC50 (second compound 3.16 µM)?
A: 22.5 nM

Q: What about the IC50 (second compound 10 µM) of the same molecule?
A: 23.8 nM

Q: What about the viability, T/C [13] of the same molecule?
A: 102%

Q: What about the viability, T/C [14] of the same molecule?
A: 101%

Q: What about the viability, T/C [15] of the same molecule?
A: 98.6%

Q: What about the viability, T/C [16] of the same molecule?
A: 93.3%

Q: What about the viability, T/C [1] of the same molecule?
A: 37%

Q: And the viability, T/C [2]?
A: 8.63%

Q: What about the viability, T/C [17] of the same molecule?
A: 116%

Q: And the viability, T/C [18]?
A: 102%

Q: What about the viability, T/C [19] of the same molecule?
A: 96.8%

Q: And the viability, T/C [20]?
A: 98.2%

Q: What about the viability, T/C [3] of the same molecule?
A: 32.5%

Q: And the viability, T/C [4]?
A: 8.01%

Q: And the viability, T/C [21]?
A: 115%

Q: And the viability, T/C [22]?
A: 98.2%

Q: And the viability, T/C [23]?
A: 94.2%

Q: What about the viability, T/C [24] of the same molecule?
A: 105%

Q: And the viability, T/C [5]?
A: 38.5%

Q: What about the viability, T/C [6] of the same molecule?
A: 5.29%

Q: And the viability, T/C [25]?
A: 120%

Q: And the viability, T/C [26]?
A: 96.2%

Q: And the viability, T/C [27]?
A: 98.8%

Q: What about the viability, T/C [28] of the same molecule?
A: 101%

Q: What about the viability, T/C [7] of the same molecule?
A: 33.4%

Q: What about the viability, T/C [8] of the same molecule?
A: 7.54%

Q: And the viability, T/C [29]?
A: 107%

Q: What about the viability, T/C [30] of the same molecule?
A: 103%

Q: What about the viability, T/C [31] of the same molecule?
A: 97.6%

Q: And the viability, T/C [32]?
A: 115%

Q: What about the viability, T/C [9] of the same molecule?
A: 26.7%

Q: And the viability, T/C [10]?
A: 9.06%

Q: And the viability, T/C [33]?
A: 113%

Q: What about the viability, T/C [34] of the same molecule?
A: 106%

Q: What about the viability, T/C [35] of the same molecule?
A: 98.9%

Q: And the viability, T/C [36]?
A: 104%

Q: What about the viability, T/C [11] of the same molecule?
A: 32.2%

Q: What about the viability, T/C [12] of the same molecule?
A: 8.26%
